Laboratory results as given in patent publication US20060014835A1, “Therapeutic agent for chronic obstructive pulmonary disease” (priority 2002, published 2006).

System: rat
Assay: single oral administration toxicity to rat (minimum lethal dose)
Format: in vivo
Method: The toxicity of the compounds of the present invention is very low and therefore, the compounds may be considered safe for pharmaceutical use. For example, a minimum of lethal dose of N-hydroxy-5-hydroxy-2(S)-methyl-4(S) (4-phenoxybenzoyl)aminopentanamide and N-hydroxy-5-ethoxymethyloxy-2(S)-methyl-4(S)-(4-phenoxybenzoyl)aminopentanamide by single oral administration to rat was 2000 mg/kg.

Compound | minimum of lethal dose [mg/kg]
C[C@@H](C[C@@H](CO)NC(=O)c1ccc(Oc2ccccc2)cc1)C(=O)NO [Compound (1), N-hydroxy-5-hydroxy-2 (S)-methyl-4(S)-(4-phenoxybenzoyl) aminopentanamide] | 2000
CCOCOC[C@H](C[C@H](C)C(=O)NO)NC(=O)c1ccc(Oc2ccccc2)cc1 [Compound (2), N-hydroxy 5-ethoxymethyloxy-2(S)-methyl-4(S)-(4-phenoxybenzoyl) aminopentanamide] | 2000
